In the Kinase Knowledgebase extract (Sharma et al. 2016):

Biological target: MAPK14 (human) (UniProt Q16539)
Assay: Inhibition of MAPK14 Kinase Activity

MAPK14 (human), sequence (Q16539 whole entry, looked up): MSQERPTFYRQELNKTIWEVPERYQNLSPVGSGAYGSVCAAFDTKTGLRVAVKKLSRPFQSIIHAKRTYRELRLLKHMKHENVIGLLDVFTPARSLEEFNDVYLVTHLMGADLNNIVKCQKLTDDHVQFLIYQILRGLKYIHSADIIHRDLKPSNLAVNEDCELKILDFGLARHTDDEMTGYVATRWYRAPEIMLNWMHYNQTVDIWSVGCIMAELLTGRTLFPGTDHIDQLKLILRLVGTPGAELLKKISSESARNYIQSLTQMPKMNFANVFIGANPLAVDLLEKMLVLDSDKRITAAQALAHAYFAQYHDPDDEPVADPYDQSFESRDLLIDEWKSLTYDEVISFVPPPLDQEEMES

Compound	IC50
Nc1sc2c(ccc(=O)n2-c2ccccc2)c1C(=O)c1cccc(F)c1	< 2000 nM
Cc1cc(C(=O)c2c(NC(=O)N3CC[C@H](N(C)C)C3)sc3c2ccc(=O)n3-c2ccccc2)ccc1F	< 2000 nM
O=C(c1cccc(Cl)c1)c1c(NC(=O)C2CCNCC2)sc2c1ccc(=O)n2-c1ccccc1	< 2000 nM
Cc1cc(C(=O)c2c(NC3CN(C)C3)sc3c2ccc(=O)n3CC2CC2)ccc1F	< 2000 nM
CN1CCC(Nc2sc3c(ccc(=O)n3-c3ccccc3)c2C(=O)c2ccc(F)c(Cl)c2)CC1	< 2000 nM
Cc1ccc(-n2c(=O)ccc3c(C(=O)c4ccccc4)c(NC4CNC4)sc32)cc1	< 2000 nM
NC(=O)c1sc2c(ccc(=O)n2-c2ccccc2)c1C(=O)c1ccc(F)c(Cl)c1	< 2000 nM
O=C(c1ccccc1)c1csc2c1ccc(=O)n2-c1ccccc1	< 2000 nM
Cc1cc(C(=O)c2c(NC(=O)NCC(C)(C)O)sc3c2ccc(=O)n3-c2ccccc2)ccc1F	< 2000 nM
O=C(c1ccccc1)c1c(NC2CNC2)sc2c1ccc(=O)n2-c1ccccc1	< 2000 nM
CNC(=O)CNc1sc2c(ccc(=O)n2-c2ccccc2)c1C(=O)c1ccccc1	< 2000 nM
CN(C)[C@H]1CCN(c2sc3c(ccc(=O)n3-c3ccccc3)c2C(=O)c2ccccc2)C1	< 2000 nM
Cc1cccc(C(=O)c2c(NC3CNC3)sc3c2ccc(=O)n3-c2ccccc2)c1	< 2000 nM
O=C(c1ccccc1)c1c(C(=O)N2CCC2)sc2c1ccc(=O)n2-c1ccccc1	< 2000 nM
O=C(c1ccccc1)c1c(N[C@H]2CCNC2)sc2c1ccc(=O)n2-c1ccccc1	< 2000 nM
O=C(c1ccccc1)c1c(C(=O)N2CCCC2)sc2c1ccc(=O)n2-c1ccccc1	< 2000 nM
N[C@H]1CC[C@H](Nc2sc3c(ccc(=O)n3-c3ccccc3)c2C(=O)c2ccccc2)CC1	< 2000 nM
CN(C)[C@@H]1CCN(C(=O)Nc2sc3c(ccc(=O)n3-c3ccccc3)c2C(=O)c2ccccc2)C1	< 2000 nM
NC1CN(c2sc3c(ccc(=O)n3-c3ccccc3)c2C(=O)c2ccccc2)C1	< 2000 nM
Cc1cccc(C(=O)c2c(NC3CCNCC3)sc3c2ccc(=O)n3-c2ccccc2)c1	< 2000 nM
Cc1cc(C(=O)c2c(NC3CN(C(C)C)C3)sc3c2ccc(=O)n3-c2ccccc2)ccc1F	< 2000 nM
CC(C)N1CCC(Nc2sc3c(ccc(=O)n3-c3ccccc3)c2C(=O)c2ccccc2)C1 (stereo not drawn)	< 2000 nM
Nc1sc2c(ccc(=O)n2-c2ccccc2)c1C(=O)c1cccs1	< 2000 nM
Nc1sc2c(ccc(=O)n2-c2ccccc2)c1C(=O)c1cccc(C(F)(F)F)c1	< 2000 nM
CC(=O)Nc1sc2c(ccc(=O)n2-c2ccccc2Cl)c1C(=O)c1ccc(F)c(C)c1	< 2000 nM

Compound	IC50
O=C(c1ccccc1)c1c([N+](=O)[O-])sc2c1ccc(=O)n2-c1ccccc1	< 2000 nM
O=C(c1ccccc1)c1c(NC(=O)N2CC[C@@H](O)C2)sc2c1ccc(=O)n2-c1ccccc1	< 2000 nM
CN1CC(Nc2sc3c(ccc(=O)n3-c3ccccc3)c2C(=O)c2ccccc2)C1	< 2000 nM
CCOC(=O)c1sc2c(ccc(=O)n2-c2ccccc2)c1C(=O)c1cccc(C)c1	< 2000 nM
Cc1ccc(C(=O)c2c(N)sc3c2ccc(=O)n3-c2ccccc2)cc1C	< 2000 nM
CN(C)C(=O)CNc1sc2c(ccc(=O)n2-c2ccccc2)c1C(=O)c1ccccc1	< 2000 nM
Cc1cccc(C(=O)c2c(NS(C)(=O)=O)sc3c2ccc(=O)n3-c2ccccc2)c1	< 2000 nM
Nc1sc2c(ccc(=O)n2-c2ccccc2F)c1C(=O)c1ccccc1	< 2000 nM
CC(C)(CO)NC(=O)Nc1sc2c(ccc(=O)n2CC2CC2)c1C(=O)c1ccccc1	< 2000 nM
Cc1cccc(C(=O)c2c(N)sc3c2ccc(=O)n3-c2ccccc2F)c1	< 2000 nM
Cc1cc(C(=O)c2c(NC(=O)NC(C)(C)CO)sc3c2ccc(=O)n3-c2ccccc2Cl)ccc1F	< 2000 nM
Cc1ccc(-n2c(=O)ccc3c(C(=O)c4ccccc4)c(N)sc32)cc1	< 2000 nM
Nc1sc2c(ccc(=O)n2-c2ccccc2)c1C(=O)c1ccc(OC(F)F)cc1	< 2000 nM
Nc1sc2c(ccc(=O)n2-c2ccccc2)c1C(=O)c1ccccc1	< 2000 nM
Nc1sc2c(ccc(=O)n2-c2ccccc2)c1C(=O)c1ccccc1Cl	< 2000 nM
CCN1CC(Nc2sc3c(ccc(=O)n3-c3ccccc3)c2C(=O)c2ccc(F)c(C)c2)C1	< 2000 nM
Nc1sc2c(ccc(=O)n2-c2ccccc2Cl)c1C(=O)c1ccccc1	< 2000 nM
CN1CCC(Nc2sc3c(ccc(=O)n3-c3ccccc3)c2C(=O)c2ccccc2)CC1	< 2000 nM
CN1CCC(Nc2sc3c(ccc(=O)n3-c3ccc(F)cc3)c2C(=O)c2ccccc2)CC1	< 2000 nM
Nc1sc2c(ccc(=O)n2-c2ccccc2)c1C(=O)c1ccccn1	< 2000 nM
CN(C)c1sc2c(ccc(=O)n2-c2ccccc2)c1C(=O)c1ccccc1	< 2000 nM
CC(=O)Nc1sc2c(ccc(=O)n2-c2ccccc2)c1C(=O)c1ccc(F)cc1	< 2000 nM
C=CCNC(=O)Nc1sc2c(ccc(=O)n2-c2ccccc2)c1C(=O)c1cccc(C)c1	< 2000 nM
CN(C)C(=O)c1sc2c(ccc(=O)n2-c2ccccc2)c1C(=O)c1ccccc1	< 2000 nM
CCN1CC[C@@H](NC(=O)Nc2sc3c(ccc(=O)n3-c3ccccc3)c2C(=O)c2ccc(F)c(C)c2)C1	< 2000 nM

Compound	IC50
Cc1ccccc1C(=O)c1c(N)sc2c1ccc(=O)n2-c1ccccc1	< 2000 nM
Cc1cc(C(=O)c2c(NC3CCN(C(C)C)CC3)sc3c2ccc(=O)n3-c2ccccc2)ccc1F	< 2000 nM
COc1cccc(C(=O)c2c(N)sc3c2ccc(=O)n3-c2ccccc2)c1	< 2000 nM
O=C(NCCO)Nc1sc2c(ccc(=O)n2-c2ccccc2)c1C(=O)c1ccccc1	< 2000 nM
CCN1CCC(NC(=O)Nc2sc3c(ccc(=O)n3-c3ccccc3)c2C(=O)c2cccc(C)c2)C1 (stereo not drawn)	< 2000 nM
CC(C)(O)CNC(=O)Nc1sc2c(ccc(=O)n2-c2ccccc2)c1C(=O)c1ccccc1	< 2000 nM
CC(=O)Nc1sc2c(ccc(=O)n2-c2ccccc2)c1C(=O)c1cccc(C)c1	< 2000 nM
Cc1ccc(-n2c(=O)ccc3c(C(=O)c4ccccc4)c(NC4CN(C)C4)sc32)cc1	< 2000 nM
CN1CC[C@@H](Nc2sc3c(ccc(=O)n3-c3ccccc3)c2C(=O)c2ccccc2)C1	< 2000 nM
Nc1sc2c(ccc(=O)n2-c2ccc(F)cc2)c1C(=O)c1ccccc1	< 2000 nM
CC(=O)Nc1sc2c(ccc(=O)n2-c2ccccc2F)c1C(=O)c1cccc(C)c1	< 2000 nM
Nc1sc2c(ccc(=O)n2-c2ccccc2)c1C(=O)c1ccc(F)cc1	< 2000 nM
CN1CCC(C(=O)Nc2sc3c(ccc(=O)n3-c3ccccc3)c2C(=O)c2ccccc2)CC1	< 2000 nM
CC(=O)Nc1sc2c(ccc(=O)n2-c2ccccc2)c1C(=O)c1ccccc1F	< 2000 nM
O=C(c1ccccc1)c1c(C(=O)N2CCOCC2)sc2c1ccc(=O)n2-c1ccccc1	< 2000 nM
Cc1cccc(C(=O)c2c(N3CCC3)sc3c2ccc(=O)n3-c2ccccc2)c1	< 2000 nM
O=C(c1ccccc1)c1c(NCC2CNC2)sc2c1ccc(=O)n2-c1ccccc1	< 2000 nM
CC(C)N1CCC(Nc2sc3c(ccc(=O)n3-c3ccccc3)c2C(=O)c2ccccc2)CC1	< 2000 nM
Cc1cc(C(=O)c2c(NC(=O)N3CC[C@@H](N(C)C)C3)sc3c2ccc(=O)n3-c2ccccc2)ccc1F	< 2000 nM
CC(=O)Nc1sc2c(ccc(=O)n2-c2ccccc2F)c1C(=O)c1ccc(F)c(C)c1	< 2000 nM
Cc1cc(C(=O)c2c(NC(=O)NC(C)(C)CO)sc3c2ccc(=O)n3CC2CC2)ccc1F	< 2000 nM
Nc1sc2c(ccc(=O)n2-c2ccccc2)c1C(=O)c1ccc(OC(F)(F)F)cc1	< 2000 nM
CN1CC[C@@H](NC(=O)Nc2sc3c(ccc(=O)n3-c3ccccc3)c2C(=O)c2ccccc2)C1	< 2000 nM
Cc1cc(C(=O)c2c(N)sc3c2ccc(=O)n3-c2ccccc2F)ccc1F	< 2000 nM
NC(=O)CCNc1sc2c(ccc(=O)n2-c2ccccc2)c1C(=O)c1ccccc1	< 2000 nM

Compound	IC50
CN1CC[C@H](Nc2sc3c(ccc(=O)n3-c3ccccc3)c2C(=O)c2ccccc2)C1	< 2000 nM
N[C@H]1CCN(C(=O)Nc2sc3c(ccc(=O)n3-c3ccccc3)c2C(=O)c2ccccc2)C1	< 2000 nM
Cc1cccc(C(=O)c2c(NC(=O)N3CCC3)sc3c2ccc(=O)n3-c2ccccc2)c1	< 2000 nM
CCN1CCC(Nc2sc3c(ccc(=O)n3-c3ccccc3)c2C(=O)c2ccccc2)CC1	< 2000 nM
Cc1cccc(C(=O)c2c(NC(=O)N3CCC[C@@H]3CO)sc3c2ccc(=O)n3-c2ccccc2)c1	< 2000 nM
Cc1cc(C(=O)c2c([N+](=O)[O-])sc3c2ccc(=O)n3-c2ccccc2Cl)ccc1F	< 2000 nM
CCN1CCC(Nc2sc3c(ccc(=O)n3-c3ccccc3)c2C(=O)c2ccc(F)c(C)c2)CC1	< 2000 nM
Cc1cccc(C(=O)c2c(N[C@H]3CCNC3)sc3c2ccc(=O)n3-c2ccccc2)c1	< 2000 nM
Cc1cccc(C(=O)c2c(N)sc3c2ccc(=O)n3-c2ccccc2Cl)c1	< 2000 nM
CC(=O)Nc1sc2c(ccc(=O)n2-c2ccccc2)c1C(=O)c1cccc(C)n1	< 2000 nM
NC(=O)CNc1sc2c(ccc(=O)n2-c2ccccc2)c1C(=O)c1ccccc1	< 2000 nM
N#Cc1sc2c(ccc(=O)n2-c2ccccc2Cl)c1C(=O)c1ccccc1	< 2000 nM
CC(=O)Nc1sc2c(ccc(=O)n2-c2ccccc2)c1C(=O)c1cccc(F)c1	< 2000 nM
Cc1cc(C(=O)c2c(NC(=O)NCC(C)(C)O)sc3c2ccc(=O)n3CC2CC2)ccc1F	< 2000 nM
Cc1cc(C(=O)c2c(N)sc3c2ccc(=O)n3-c2ccc(F)cc2)ccc1F	< 2000 nM
Nc1sc2c(ccc(=O)n2-c2ccccc2)c1C(=O)c1ccc(C(F)(F)F)cc1	< 2000 nM
O=C(c1ccccc1)c1c(NCCN2CCCC2)sc2c1ccc(=O)n2-c1ccccc1	< 2000 nM
N#Cc1ccc(C(=O)c2c(N)sc3c2ccc(=O)n3-c2ccccc2)cc1	< 2000 nM
CN1CCN(C(=O)Nc2sc3c(ccc(=O)n3-c3ccccc3)c2C(=O)c2ccccc2)CC1	< 2000 nM
Nc1sc2c(ccc(=O)n2-c2ccccc2)c1C(=O)c1ccccc1OC(F)(F)F	< 2000 nM
Nc1sc2c(ccc(=O)n2-c2c(F)cccc2F)c1C(=O)c1ccccc1	< 2000 nM
NC(=O)c1sc2c(ccc(=O)n2-c2ccccc2)c1C(=O)c1ccc(F)cc1F	< 2000 nM
Cc1cc(C(=O)c2c(NC(=O)N[C@@H]3CCNC3)sc3c2ccc(=O)n3-c2ccccc2)ccc1F	< 2000 nM
